Values after ≈ are worked out from the molar mass of the structure shown. Where a name gives a salt, the structure may show the parent alone. Read-outs that look alike come from different tables or passages of the source.
How the values were obtained:
[1] = tested on: Staphylococcus aureus Strain 209B; assay: Microbiological Activity (in vitro), Staphylococcus aureus Strain 209B; assay type: cell-based; details: STRAIN209B
[2] = tested on: Staphylococcus aureus Strain Gray; assay: Microbiological Activity (in vitro), Staphylococcus aureus Strain Gray; assay type: cell-based
[3] = tested on: Staphylococcus aureus Strain 59N; assay: Microbiological Activity (in vitro), Staphylococcus aureus Strain 59N; assay type: cell-based; details: STRAIN59N
[4] = tested on: Staphylococcus aureus Strain Ziegler; assay: Microbiological Activity (in vitro), Staphylococcus aureus Strain Ziegler; assay type: cell-based
[5] = tested on: Staphylococcus aureus Strain Wood; assay: Microbiological Activity (in vitro), Staphylococcus aureus Strain Wood; assay type: cell-based
[6] = Peak Serum Levels in Dogs; assay type: in vivo, dog; details: for Peak Serum Levels in Dogs: 10 mg/kg i.m., single dose, agar diffusion assay of serum
Protocol: In determining peak serum levels, the animal tested (e.g. dog) is given a single dose of 10 mg/kg of the everninomicin D derivative, blood samples are taken periodically, and the serum thereof is assayed for antibacterial activity by an agardiffusion-assay as described by Weinstein et al., Antimicrobial Agents and Chemotherapy, p. 24 (1964).

[7] = tested on: bacteria; details: known compounds, cited from earlier work
[8] = pKa; assay type: physicochemical
[9] = tested on: gram-positive bacteria; assay: Antibacterial activity against gram-positive bacteria (in words); assay type: cell-based; details: for antibacterial activity in vitro against gram-positive bacteria: e.g. Staphylococcus aureus, Staph. 11631, Staph. W., Streptococcus pyogenes C, Strep. pyogenes C-203, Bacillus subtilis
[10] = tested on: bacteria which are resistant to other antibacterial agents; assay: Antibacterial activity against resistant bacteria (in words); assay type: cell-based; details: resistant to penicillin, penicillinase-resistant penicillins, tetracycline, macrolides such as erythromycin, lincomycin
[11] = tested on: gram-negative bacteria; assay: Antibacterial activity against gram-negative bacteria (in words); assay type: cell-based; details: certain gram-negative bacteria
[12] = tested on: bacteria; assay: Antibacterial activity, general (in words); details: when administered by injection

COCC1OC(OC2OCC3OC4(OCC(O)(C(C)OC)C5OCOC54)OC3C2OC)C(OC)C(O)C1OC1OC(C)C(OC)C(OC2CC3(C)OC4(CC(O)C(OC5CC(OC6CC(C)(NO)C(OC)C(C)O6)C(OC(=O)c6c(C)c(Cl)c(O)c(Cl)c6OC)C(C)O5)C(C)O4)OC3C(C)O2)C1O (stereo not shown) [Hydroxylaminoeverninomicin D Sodium salt, reference compound]
MIC [1]: 0.06 µg/mL
MIC [2]: 0.06 µg/mL
MIC [3]: 0.03 µg/mL
MIC [4]: 0.06 µg/mL
MIC [5]: 0.06 µg/mL
Peak Serum Levels in Dogs [6]: 20-30

COCC1OC(OC2OCC3OC4(OCC(O)(C(C)OC)C5OCOC54)OC3C2OC)C(OC)C(O)C1OC1OC(C)C(OC)C(OC2OC(C)C3OC4(CC(O)C(OC5CC(O)C(OC(=O)c6c(C)c(Cl)c(O)c(Cl)c6OC)C(C)O5)C(C)O4)OC3(C)C2O)C1O (stereo not shown) [desevernitrose everninomicin B]
antibacterial activity ([7]; U.S. Pat. No. 3,920,629): having anti-bacterial activity

COCC1OC(OC2OCC3OC4(OCC(O)C5OCOC54)OC3C2OC)C(OC)C(O)C1OC1OC(C)C(OC)C(OC2CC3(C)OC4(CC(O)C(OC5CC(O)C(OC(=O)c6c(C)c(Cl)c(O)c(Cl)c6OC)C(C)O5)C(C)O4)OC3C(C)O2)C1O (stereo not shown) [desevernitrose everninomicin C]
antibacterial activity ([7]; U.S. Pat. No. 3,920,629): having anti-bacterial activity

COCC1OC(OC2OCC3OC4(OCC(O)(C(C)OC)C5OCOC54)OC3C2OC)C(OC)C(O)C1OC1OC(C)C(OC)C(OC2CC3(C)OC4(CC(O)C(OC5CC(O)C(OC(=O)c6c(C)c(Cl)c(O)c(Cl)c6OC)C(C)O5)C(C)O4)OC3C(C)O2)C1O (stereo not shown) [desevernitrose everninomicin D]
pKa [8]: 7.5
antibacterial activity ([7]; U.S. Pat. No. 3,920,629): having anti-bacterial activity

COCC1OC(OC2OCC3OC4(OCC(O)(C(C)OC)C5OCOC54)OC3C2OC)C(OC)C(O)C1OC1OC(C)C(OC)C(OC2OC(C)C3OC4(CC(O)C(OC5CC(OC6CC(C)(O)C(OC)C(C)O6)C(OC(=O)c6c(C)c(Cl)c(O)c(Cl)c6OC)C(C)O5)C(C)O4)OC3(C)C2O)C1O (stereo not shown) [everninomicin B-7]
inhibiting the growth of gram-positive bacteria [9]: antibacterial activity against gram-positive bacteria
antibacterial activity in vitro against gram-positive bacteria [9]: narrow spectrum antibacterial activity in vitro against gram-positive bacteria
antibacterial activity against resistant bacteria [10]: exhibit antibacterial activity against bacteria which are resistant to other antibacterial agents

COCC1OC(OC2OCC3OC4(OCC(O)C5OCOC54)OC3C2OC)C(OC)C(O)C1OC1OC(C)C(OC)C(OC2CC3(C)OC4(CC(O)C(OC5CC(OC6CC(C)(O)C(OC)C(C)O6)C(OC(=O)c6c(C)c(Cl)c(O)c(Cl)c6OC)C(C)O5)C(C)O4)OC3C(C)O2)C1O (stereo not shown) [everninomicin C-7]
inhibiting the growth of gram-positive bacteria [9]: antibacterial activity against gram-positive bacteria
antibacterial activity in vitro against gram-positive bacteria [9]: narrow spectrum antibacterial activity in vitro against gram-positive bacteria
antibacterial activity against resistant bacteria [10]: exhibit antibacterial activity against bacteria which are resistant to other antibacterial agents

COCC1OC(OC2OCC3OC4(OCC(O)(C(C)OC)C5OCOC54)OC3C2OC)C(OC)C(O)C1OC1OC(C)C(OC)C(OC2CC3(C)OC4(CC(O)C(OC5CC(OC6CC(C)(O)C(OC)C(C)O6)C(OC(=O)c6c(C)c(Cl)c(O)c(Cl)c6OC)C(C)O5)C(C)O4)OC3C(C)O2)C1O [everninomicin D-7]
MIC [1]: 0.3 µg/mL (≈ 0.199 µM)
MIC [2]: 0.3 µg/mL (≈ 0.199 µM)
MIC [3]: 0.075 µg/mL (≈ 0.0497 µM)
MIC [4]: 0.75 µg/mL (≈ 0.497 µM)
MIC [5]: 0.75 µg/mL (≈ 0.497 µM)
Peak Serum Levels in Dogs [6]: 15-60
absorption and serum levels in the dog ([6]; when administered by injection): rapidly absorbed, producing high serum levels in the dog
inhibiting the growth of gram-positive bacteria [9]: particularly effective in inhibiting the growth of gram-positive bacteria
antibacterial activity in vitro against gram-positive bacteria [9]: narrow spectrum antibacterial activity in vitro against gram-positive bacteria
susceptibility of gram-negative bacteria [11]: certain gram-negative bacteria are also susceptible
antibacterial activity against resistant bacteria [10]: exhibit antibacterial activity against bacteria which are resistant to other antibacterial agents
antibacterial activity relative to precursor hydroxylaminoeverninomicin D [12]: antibacterial activity comparable to that of the precursor hydroxylaminoeverninomicin D

COCC1OC(OC2OCC3OC4(OCC(O)(C(C)OC)C5OCOC54)OC3C2OC)C(OC)C(O)C1OC1OC(C)C(OC)C(OC2OC(C)C3OC4(CC(O)C(OC5CC(OC6CC(C)(NO)C(OC)C(C)O6)C(OC(=O)c6c(C)c(Cl)c(O)c(Cl)c6OC)C(C)O5)C(C)O4)OC3(C)C2O)C1O (stereo not shown) [hydroxylaminoeverninomicin B]
antibacterial activity ([7]; U.S. Pat. No. 3,915,956): exhibit antibacterial activity

COCC1OC(OC2OCC3OC4(OCC(O)C5OCOC54)OC3C2OC)C(OC)C(O)C1OC1OC(C)C(OC)C(OC2CC3(C)OC4(CC(O)C(OC5CC(OC6CC(C)(NO)C(OC)C(C)O6)C(OC(=O)c6c(C)c(Cl)c(O)c(Cl)c6OC)C(C)O5)C(C)O4)OC3C(C)O2)C1O (stereo not shown) [hydroxylaminoeverninomicin C]
antibacterial activity ([7]; U.S. Pat. No. 3,915,956): exhibit antibacterial activity

COCC1OC(OC2OCC3OC4(OCC(O)(C(C)OC)C5OCOC54)OC3C2OC)C(OC)C(O)C1OC1OC(C)C(OC)C(OC2CC3(C)OC4(CC(O)C(OC5CC(OC6CC(C)(NO)C(OC)C(C)O6)C(OC(=O)c6c(C)c(Cl)c(O)c(Cl)c6OC)C(C)O5)C(C)O4)OC3C(C)O2)C1O (stereo not shown) [hydroxylaminoeverninomicin D]
antibacterial activity ([7]; U.S. Pat. No. 3,915,956): exhibit antibacterial activity

COCC1OC(OC2OCC3OC4(OCC(O)(C(C)OC)C5OCOC54)OC3C2OC)C(OC)C(O)C1OC1OC(C)C(OC)C(OC2OC(C)C3OC4(CC(O)C(OC5CC(OC6CC(C)(N=O)C(OC)C(C)O6)C(OC(=O)c6c(C)c(Cl)c(O)c(Cl)c6OC)C(C)O5)C(C)O4)OC3(C)C2O)C1O (stereo not shown) [nitrosoeverninomicin B]
antibacterial activity ([7]; U.S. Pat. No. 3,915,956): exhibit antibacterial activity

COCC1OC(OC2OCC3OC4(OCC(O)C5OCOC54)OC3C2OC)C(OC)C(O)C1OC1OC(C)C(OC)C(OC2CC3(C)OC4(CC(O)C(OC5CC(OC6CC(C)(N=O)C(OC)C(C)O6)C(OC(=O)c6c(C)c(Cl)c(O)c(Cl)c6OC)C(C)O5)C(C)O4)OC3C(C)O2)C1O (stereo not shown) [nitrosoeverninomicin C]
antibacterial activity ([7]; U.S. Pat. No. 3,915,956): exhibit antibacterial activity

COCC1OC(OC2OCC3OC4(OCC(O)(C(C)OC)C5OCOC54)OC3C2OC)C(OC)C(O)C1OC1OC(C)C(OC)C(OC2CC3(C)OC4(CC(O)C(OC5CC(OC6CC(C)(N=O)C(OC)C(C)O6)C(OC(=O)c6c(C)c(Cl)c(O)c(Cl)c6OC)C(C)O5)C(C)O4)OC3C(C)O2)C1O (stereo not shown) [nitrosoeverninomicin D]
antibacterial activity ([7]; U.S. Pat. No. 3,915,956): exhibit antibacterial activity
